Patent US20220033397A1, “PHARMACEUTICAL COMPOUNDS AND THEIR USE AS INHIBITORS OF UBIQUITIN SPECIFIC PROTEASE 19 (USP19)” (ALMAC DISCOVERY LIMITED, priority 2018, published 2022)

biological target: T1, Full-length USP19 (Homo sapiens, UniProt O94966); test: USP19 fluorescence polarisation (FP) homogeneous assay with Ubiquitin-Lys-TAMRA substrate; type: biochemical; settings: 2.5 nM USP19, 30 min pre-incubation, average of at least two duplicate experiments
T1 construct: Full-length USP19 was purchased from Boston Biochem (E-576); purchased Boston Biochem E-576
T1 sequence (O94966 1-1318): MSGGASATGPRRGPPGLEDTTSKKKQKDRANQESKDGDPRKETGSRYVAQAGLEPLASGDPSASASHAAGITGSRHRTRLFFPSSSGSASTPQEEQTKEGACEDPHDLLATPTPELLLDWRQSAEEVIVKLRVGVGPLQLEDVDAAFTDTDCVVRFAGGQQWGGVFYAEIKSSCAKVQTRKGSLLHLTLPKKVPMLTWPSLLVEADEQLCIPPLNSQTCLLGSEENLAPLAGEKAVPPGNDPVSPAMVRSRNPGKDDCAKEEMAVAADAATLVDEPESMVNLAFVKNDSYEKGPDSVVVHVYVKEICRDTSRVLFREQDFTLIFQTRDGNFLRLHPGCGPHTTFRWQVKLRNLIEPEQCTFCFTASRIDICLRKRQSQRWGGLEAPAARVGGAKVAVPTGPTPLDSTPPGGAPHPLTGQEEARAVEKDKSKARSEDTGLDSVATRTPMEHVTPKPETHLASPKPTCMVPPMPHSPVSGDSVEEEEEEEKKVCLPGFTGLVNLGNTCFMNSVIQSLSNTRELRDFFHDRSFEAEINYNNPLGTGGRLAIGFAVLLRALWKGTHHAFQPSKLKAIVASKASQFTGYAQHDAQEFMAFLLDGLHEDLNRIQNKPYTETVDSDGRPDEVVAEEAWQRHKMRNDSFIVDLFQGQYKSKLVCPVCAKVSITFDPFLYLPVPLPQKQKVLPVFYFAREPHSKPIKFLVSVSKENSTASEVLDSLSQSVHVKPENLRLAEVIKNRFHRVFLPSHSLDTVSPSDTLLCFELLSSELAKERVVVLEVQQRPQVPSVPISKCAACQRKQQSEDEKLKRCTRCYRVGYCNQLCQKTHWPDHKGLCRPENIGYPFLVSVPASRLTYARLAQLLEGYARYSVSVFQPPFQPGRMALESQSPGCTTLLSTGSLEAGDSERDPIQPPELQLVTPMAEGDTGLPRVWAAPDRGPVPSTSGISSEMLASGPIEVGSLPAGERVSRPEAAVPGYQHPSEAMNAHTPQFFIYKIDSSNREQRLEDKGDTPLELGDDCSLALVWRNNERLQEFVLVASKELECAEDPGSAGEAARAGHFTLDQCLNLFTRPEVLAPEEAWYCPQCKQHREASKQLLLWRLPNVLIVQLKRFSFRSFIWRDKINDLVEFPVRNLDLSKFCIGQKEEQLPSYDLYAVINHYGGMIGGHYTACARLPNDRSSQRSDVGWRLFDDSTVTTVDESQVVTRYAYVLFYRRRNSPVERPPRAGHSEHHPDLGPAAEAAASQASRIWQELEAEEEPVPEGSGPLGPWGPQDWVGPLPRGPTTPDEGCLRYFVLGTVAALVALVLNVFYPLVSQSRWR
In short: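 Full-length USP19 preincubated 30 min at RT with inhibitor (200 μM to 2 μM series, 8–18 points) before adding 500 nM Ubiquitin-Lys-TAMRA substrate.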

IC50 [µM]	SMILES
5 to 50	O=C(NCc1noc(C2CC2)n1)N1CC[C@@](O)(Cn2cnc(-c3ccccc3)cc2=O)C2(CCCC2)C1 [Example 218, (S)—N-((5-Cyclopropyl-1,2,4-oxadiazol-3-yl)methyl)-10-hydroxy-10-((6-oxo-4-phenylpyrimidin-1(6H)-yl)methyl)-7-azaspiro[4.5]decane-7-carboxamide]
< 0.5	O=C(N1CC[C@@](O)(Cn2cnc(Cl)cc2=O)C2(CCCC2)C1)N1CCOC[C@H]1c1ccccc1 [Example 220, 6-Chloro-3-(((S)-10-hydroxy-7-((R)-3-phenylmorpholine-4-carbonyl)-7-azaspiro[4.5]decan-10-yl)methyl)pyrimidin-4(3H)-one]
< 0.5	O=C(N1CC[C@@](O)(Cn2cnc(C3CC3)cc2=O)C2(CCCC2)C1)N1CCOC[C@H]1c1ccccc1 [Example 222, 6-Cyclopropyl-3-(((S)-10-hydroxy-7-((R)-3-phenylmorpholine-4-carbonyl)-7-azaspiro[4.5]decan-10-yl)methyl)pyrimidin-4(3H)-one]
< 0.5	O=C(N1CC[C@@](O)(Cn2cnc(N3CCCC3)cc2=O)C2(CCCC2)C1)N1CCOC[C@H]1c1ccccc1 [Example 223, 3-(((S)-10-Hydroxy-7-((R)-3-phenylmorpholine-4-carbonyl)-7-azaspiro[4.5]decan-10-yl)methyl)-6-(pyrrolidin-1-yl)pyrimidin-4(3H)-one]
< 0.5	Cn1cc(-c2cc(=O)n(C[C@]3(O)CCN(C(=O)N4CCOC[C@H]4c4ccccc4)CC34CCCC4)cn2)cn1 [Example 225, 3-(((S)-10-Hydroxy-7-((R)-3-phenylmorpholine-4-carbonyl)-7-azaspiro[4.5]decan-10-yl)methyl)-6-(1-methyl-1H-pyrazol-4-yl)pyrimidin-4(3H)-one]
< 0.5	O=C(N1CC[C@@](O)(Cn2cnc(-c3ccccc3)cc2=O)C2(CCCC2)C1)N1CCOC[C@H]1c1ccc(F)cc1 [Example 228, 3-(((S)-7-((R)-3-(4-Fluorophenyl)morpholine-4-carbonyl)-10-hydroxy-7-azaspiro[4.5]decan-10-yl)methyl)-6-phenylpyrimidin-4(3H)-one]
50 to 250	O=C(N1CCC(O)(Cn2cnc(-c3ccccc3)cc2=O)C2(CCCC2)C1)N1CCOCC1C1CCC1 (stereo not drawn) [Example 230, 3-((7-(3-Cyclobutylmorpholine-4-carbonyl)-10-hydroxy-7-azaspiro[4.5]decan-10-yl)methyl)-6-phenylpyrimidin-4(3H)-one]
0.5 to 5	CN(Cc1ccoc1)C(=O)N1CCC(O)(Cn2cnc(-c3ccccc3)cc2=O)C2(CCCC2)C1 (stereo not drawn) [Example 232, N-(Furan-3-ylmethyl)-10-hydroxy-N-methyl-10-((6-oxo-4-phenylpyrimidin-1(6H)-yl)methyl)-7-azaspiro[4.5]decane-7-carboxamide]
5 to 50	O=C(N1CCC(C2CC2)C1)N1CCC(O)(Cn2cnc(-c3ccccc3)cc2=O)C2(CCCC2)C1 (stereo not drawn) [Example 237, 3-((7-(3-Cyclopropylpyrrolidine-1-carbonyl)-10-hydroxy-7-azaspiro[4.5]decan-10-yl)methyl)-6-phenylpyrimidin-4(3H)-one]

The remaining lines, values behind:

SMILES	IC50 [µM]
N#Cc1ccc(CNC(=O)N2CC[C@@](O)(Cn3cnc(-c4ccccc4)cc3=O)C3(CCCC3)C2)cc1 [Example 215, (S)—N-(4-Cyanobenzyl)-10-hydroxy-10-((6-oxo-4-phenylpyrimidin-1(6H)-yl)methyl)-7-azaspiro[4.5]decane-7-carboxamide]	50 to 250
O=C(NCc1cccc(F)c1)N1CC[C@@](O)(Cn2cnc(-c3ccccc3)cc2=O)C2(CCCC2)C1 [Example 216, (S)—N-(3-Fluorobenzyl)-10-hydroxy-10-((6-oxo-4-phenylpyrimidin-1(6H)-yl)methyl)-7-azaspiro[4.5]decane-7-carboxamide]	< 0.5
O=C(NCc1ccc2c(c1)OCO2)N1CC[C@@](O)(Cn2cnc(-c3ccccc3)cc2=O)C2(CCCC2)C1 [Example 217, (S)—N-(Benzo[d][1,3]dioxol-5-ylmethyl)-10-hydroxy-10-((6-oxo-4-phenylpyrimidin-1(6H)-yl)methyl)-7-azaspiro[4.5]decane-7-carboxamide]	5 to 50
O=C(NCc1ccco1)N1CC[C@@](O)(Cn2cnc(-c3ccccc3)cc2=O)C2(CCCC2)C1 [Example 219, (S)—N-(Furan-2-ylmethyl)-10-hydroxy-10-((6-oxo-4-phenylpyrimidin-1(6H)-yl)methyl)-7-azaspiro[4.5]decane-7-carboxamide]	< 0.5
O=C(N1CC(C(F)(F)F)C1)N1CC[C@@](O)(Cn2cnc(-c3ccccc3)cc2=O)C2(CCCC2)C1 [Example 221, (S)-3-((10-Hydroxy-7-(3-(trifluoromethyl)azetidine-1-carbonyl)-7-azaspiro[4.5]decan-10-yl)methyl)-6-phenylpyrimidin-4(3H)-one]	0.5 to 5
Cn1nccc1-c1cc(=O)n(C[C@]2(O)CCN(C(=O)N3CCOC[C@H]3c3ccccc3)CC23CCCC3)cn1 [Example 224, 3-(((S)-10-Hydroxy-7-((R)-3-phenylmorpholine-4-carbonyl)-7-azaspiro[4.5]decan-10-yl)methyl)-6-(1-methyl-1H-pyrazol-5-yl)pyrimidin-4(3H)-one]	< 0.5
CN(C)c1cc(=O)n(C[C@]2(O)CCN(C(=O)N3CCOC[C@H]3c3ccccc3)CC23CCCC3)cn1 [Example 226, 6-(Dimethylamino)-3-(((S)-10-hydroxy-7-((R)-3-phenylmorpholine-4-carbonyl)-7-azaspiro[4.5]decan-10-yl)methyl)pyrimidin-4(3H)-one]	< 0.5
O=C(N1CCC(C(F)(F)F)C1)N1CC[C@@](O)(Cn2cnc(-c3ccccc3)cc2=O)C2(CCCC2)C1 (stereo partly drawn) [Example 227, 3-(((10S)-10-Hydroxy-7-(3-(trifluoromethyl)pyrrolidine-1-carbonyl)-7-azaspiro[4.5]decan-10-yl)methyl)-6-phenylpyrimidin-4(3H)-one]	0.5 to 5
O=C(N1CCC(O)(Cn2cnc(-c3ccccc3)cc2=O)C2(CCCC2)C1)N1CCOCC1CC1CC1 (stereo not drawn) [Example 229, 3-((7-(3-(Cyclopropylmethyl)morpholine-4-carbonyl)-10-hydroxy-7-azaspiro[4.5]decan-10-yl)methyl)-6-phenylpyrimidin-4(3H)-one]	5 to 50
COCC1COCCN1C(=O)N1CCC(O)(Cn2cnc(-c3ccccc3)cc2=O)C2(CCCC2)C1 (stereo not drawn) [Example 231, 3-((10-Hydroxy-7-(3-(methoxymethyl)morpholine-4-carbonyl)-7-azaspiro[4.5]decan-10-yl)methyl)-6-phenylpyrimidin-4(3H)-one]	5 to 50
CC1CCCN1C(=O)N1CCC(O)(Cn2cnc(-c3ccccc3)cc2=O)C2(CCCC2)C1 (stereo not drawn) [Example 233, 3-((10-Hydroxy-7-(2-methylpyrrolidine-1-carbonyl)-7-azaspiro[4.5]decan-10-yl)methyl)-6-phenylpyrimidin-4(3H)-one]	5 to 50
CN(C(=O)N1CCC(O)(Cn2cnc(-c3ccccc3)cc2=O)C2(CCCC2)C1)C1CCC1 (stereo not drawn) [Example 234, N-Cyclobutyl-10-hydroxy-N-methyl-10-((6-oxo-4-phenylpyrimidin-1(6H)-yl)methyl)-7-azaspiro[4.5]decane-7-carboxamide]	5 to 50
O=C(N1CCC(O)(Cn2cnc(-c3ccccc3)cc2=O)C2(CCCC2)C1)N1CCOCC1c1cccs1 (stereo not drawn) [Example 235, 3-((10-Hydroxy-7-(3-(thiophen-2-yl)morpholine-4-carbonyl)-7-azaspiro[4.5]decan-10-yl)methyl)-6-phenylpyrimidin-4(3H)-one]	< 0.5
O=C(N1CCC(O)(Cn2cnc(-c3ccccc3)cc2=O)C2(CCCC2)C1)N1CCC12CCOC2 (stereo not drawn) [Example 236, 3-((10-Hydroxy-7-(6-oxa-1-azaspiro[3.4]octane-1-carbonyl)-7-azaspiro[4.5]decan-10-yl)methyl)-6-phenylpyrimidin-4(3H)-one]	5 to 50
CN(Cc1ccns1)C(=O)N1CCC(O)(Cn2cnc(-c3ccccc3)cc2=O)C2(CCCC2)C1 (stereo not drawn) [Example 238, 10-Hydroxy-N-(isothiazol-5-ylmethyl)-N-methyl-10-((6-oxo-4-phenylpyrimidin-1(6H)-yl)methyl)-7-azaspiro[4.5]decane-7-carboxamide]	5 to 50
